The source made the active and inactive calls.
Legend:
H9c2 = experiment: cells; assay type: functional, cell-based; details: Rattus norvegicus, H9c2, Myocardium;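 note: confirmatory concentration-response retest of ultra-high-throughput screening hits for modulation of myocardial damage; cell death induced by hydrogen peroxide oxidative stress; compound pretreatment for 60 min then peroxide exposure for 2 h; potency is for protecting the cells against peroxide damage rather than for killing them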
[1] = target: FAD-linked sulfhydryl oxidase ALR (Homo sapiens, UniProt P55789); experiment: ALR-catalysed DTT oxidation blockers – biochemical, H2O2 detection, luminescence, cherry-pick, dose response (AID 493248)
INS1 = experiment: INS-1E survival protection against cytokine death – cell-based, luminescence, retest, dose response (AID 449756); assay type: functional; details: Rattus norvegicus;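 note: cell death triggered by IL-1 beta plus TNF-alpha plus IFN-gamma mixture; protective hits raise ATP signal compared with cytokine alone wells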
[2] = NIH3T3 cell viability loss – ATP luminescence, mouse fibroblasts, counter-screen, dose response (AID 2010); assay type: functional, cell-based;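 note: cells exposed to compound for about 90 hours before reading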
Cytochrome P450 1A2 = target: T1, Cytochrome P450 1A2 (Homo sapiens, UniProt P05177);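 note: PubChem cytochrome P450 panel assay, CYP1A2 panel member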
T1 sequence (P05177 whole entry): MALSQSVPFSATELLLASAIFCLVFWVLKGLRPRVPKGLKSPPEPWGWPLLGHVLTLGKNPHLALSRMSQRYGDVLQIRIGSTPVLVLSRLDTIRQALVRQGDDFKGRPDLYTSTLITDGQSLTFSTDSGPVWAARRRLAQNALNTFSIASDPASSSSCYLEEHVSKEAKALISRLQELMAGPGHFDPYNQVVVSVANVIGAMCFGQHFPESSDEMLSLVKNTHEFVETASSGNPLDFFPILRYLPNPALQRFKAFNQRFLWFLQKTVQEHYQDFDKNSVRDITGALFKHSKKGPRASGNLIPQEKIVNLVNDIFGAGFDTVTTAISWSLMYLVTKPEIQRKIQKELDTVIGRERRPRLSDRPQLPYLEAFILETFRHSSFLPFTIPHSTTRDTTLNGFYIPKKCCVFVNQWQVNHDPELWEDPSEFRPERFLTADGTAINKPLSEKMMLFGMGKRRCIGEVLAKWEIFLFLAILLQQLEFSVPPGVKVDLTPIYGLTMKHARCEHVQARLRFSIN

Cytochrome P450 2D6 = Cytochrome P450 2D6 (Homo sapiens, UniProt P10635);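 note: CYP2D6 member of a cytochrome P450 panel assay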
[3] = Trypanosoma cruzi growth suppression in host cells – NIH3T3 host cells, beta-gal luminescence, confirmation (AID 2044); assay type: functional, cell-based;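 note: intracellular parasites grown in NIH/3T3 mouse fibroblasts as host cells; luminescent beta-galactosidase reporter signal from transgenic T. cruzi replicating inside host cells; inhibitors lower the luminescence signal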
Streptococcus = experiment: GAS UMAA2166 growth inhibition – luminescence, BacTiterGlo, counter-screen for streptokinase expression inhibitor project, dose response (AID 1915); assay type: functional, organism-based;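 note: potency for reduction of bacterial viability or growth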
[4] = Luminescence Cell-Based Dose Retest to Confirm Inhibitors of Cancer Stem Cells. [Related pubchem assays (depositor defined):AID2717, AID2721]; assay type: functional; details: Homo sapiens
[5] = tested on: Streptococcus sp. 'group A'; experiment: Streptococcus pyogenes SK(-)GAS viability under kanamycin – luminescence, BacTiterGlo, confirmation, counter-screen for streptokinase expression inhibitor project, dose response (AID 1900); assay type: functional, organism-based
[6] = target: T2, Corticotropin-releasing factor receptor 2/Corticotropin-releasing factor-binding protein (Homo sapiens, UniProt P24387+Q13324); experiment: activators of CRF receptor 2 with binding protein – uHTS hits, confirmation (AID 602473); assay type: functional; details: read-out: EC50_Mean
T2 sequence (Q13324 whole entry): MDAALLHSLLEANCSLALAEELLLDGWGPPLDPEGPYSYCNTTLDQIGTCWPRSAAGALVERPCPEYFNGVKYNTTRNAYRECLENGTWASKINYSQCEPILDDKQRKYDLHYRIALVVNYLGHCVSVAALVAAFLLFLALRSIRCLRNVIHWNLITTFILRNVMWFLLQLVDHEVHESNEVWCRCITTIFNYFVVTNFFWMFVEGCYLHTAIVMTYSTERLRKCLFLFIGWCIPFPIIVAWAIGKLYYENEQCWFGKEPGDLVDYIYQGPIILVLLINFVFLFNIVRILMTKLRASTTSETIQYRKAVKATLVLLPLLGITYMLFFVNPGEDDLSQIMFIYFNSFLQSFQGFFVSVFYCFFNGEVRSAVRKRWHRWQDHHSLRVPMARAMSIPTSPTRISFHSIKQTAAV
T2 sequence (P24387 whole entry): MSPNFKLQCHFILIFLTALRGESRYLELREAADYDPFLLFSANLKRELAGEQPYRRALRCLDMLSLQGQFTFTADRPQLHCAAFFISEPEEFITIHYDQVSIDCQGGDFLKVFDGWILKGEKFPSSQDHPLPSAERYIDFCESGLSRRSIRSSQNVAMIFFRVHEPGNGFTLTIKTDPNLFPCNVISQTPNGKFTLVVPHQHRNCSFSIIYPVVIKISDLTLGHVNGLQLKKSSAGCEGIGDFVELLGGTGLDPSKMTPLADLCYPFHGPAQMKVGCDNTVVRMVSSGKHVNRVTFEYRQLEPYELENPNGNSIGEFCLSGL

[7] = target: T3, Rac GTPase-activating protein 1 (Homo sapiens, UniProt Q9H0H5); experiment: blockers of MgcRacGAP-driven Rac1 GTP hydrolysis – biochemical, ADP Hunter fluorescence, primary and confirmatory, confirmation (AID 624330); assay type: functional
T3 sequence (Q9H0H5 whole entry): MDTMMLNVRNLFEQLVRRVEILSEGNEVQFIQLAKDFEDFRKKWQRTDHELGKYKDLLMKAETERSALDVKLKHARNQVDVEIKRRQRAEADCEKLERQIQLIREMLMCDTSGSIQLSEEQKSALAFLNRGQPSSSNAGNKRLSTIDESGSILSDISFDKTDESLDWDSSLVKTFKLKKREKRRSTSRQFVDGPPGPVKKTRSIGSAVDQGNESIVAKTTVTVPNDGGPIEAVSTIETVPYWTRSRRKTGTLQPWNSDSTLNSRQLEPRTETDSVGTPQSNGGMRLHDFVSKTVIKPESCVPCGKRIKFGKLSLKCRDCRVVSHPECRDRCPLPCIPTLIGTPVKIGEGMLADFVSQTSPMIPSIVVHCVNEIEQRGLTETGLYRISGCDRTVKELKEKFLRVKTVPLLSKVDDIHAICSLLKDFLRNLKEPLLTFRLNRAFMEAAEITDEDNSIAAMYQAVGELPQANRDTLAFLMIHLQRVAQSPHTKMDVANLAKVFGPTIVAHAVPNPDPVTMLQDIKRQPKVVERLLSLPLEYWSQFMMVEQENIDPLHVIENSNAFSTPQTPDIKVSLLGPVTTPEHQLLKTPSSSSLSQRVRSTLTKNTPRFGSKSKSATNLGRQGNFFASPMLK

Sequence of FAD-linked sulfhydryl oxidase ALR (P55789 whole entry): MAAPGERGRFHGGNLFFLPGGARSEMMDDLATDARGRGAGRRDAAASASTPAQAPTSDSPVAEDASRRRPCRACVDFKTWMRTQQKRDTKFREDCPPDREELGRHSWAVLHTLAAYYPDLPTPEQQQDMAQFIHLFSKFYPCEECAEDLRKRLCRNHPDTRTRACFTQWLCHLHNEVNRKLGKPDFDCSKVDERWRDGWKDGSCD
Sequence of Cytochrome P450 2D6 (P10635 whole entry): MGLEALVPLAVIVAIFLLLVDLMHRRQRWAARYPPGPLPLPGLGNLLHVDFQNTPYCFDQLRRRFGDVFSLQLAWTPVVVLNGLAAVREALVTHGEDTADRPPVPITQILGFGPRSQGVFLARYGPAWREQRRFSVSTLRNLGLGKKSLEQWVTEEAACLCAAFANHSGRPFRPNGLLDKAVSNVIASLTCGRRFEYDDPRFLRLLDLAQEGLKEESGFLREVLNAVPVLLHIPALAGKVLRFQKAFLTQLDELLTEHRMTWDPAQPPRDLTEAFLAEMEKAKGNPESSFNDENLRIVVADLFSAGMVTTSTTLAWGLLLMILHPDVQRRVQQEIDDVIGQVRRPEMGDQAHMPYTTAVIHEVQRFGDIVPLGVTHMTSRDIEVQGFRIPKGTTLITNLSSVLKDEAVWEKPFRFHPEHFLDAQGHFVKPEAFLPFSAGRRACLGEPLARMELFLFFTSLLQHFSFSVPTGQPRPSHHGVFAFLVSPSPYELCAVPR

For `O=C(N/N=C/c1cccc(O)c1)c1cc(-c2ccc3c(c2)OCO3)[nH]n1`, the IC50 (H9c2) was > 79 µM (inactive).
For `O=C(COC(=O)CCc1nc(O)c2ccccc2n1)Nc1ccc2c(c1)OCO2`, the IC50 (H9c2) was > 79 µM (inactive).
With `Cn1c(/C=N/NC(=O)c2ccccc2)nc2ccccc21` the IC50 (H9c2) was 13.5 µM (active).
For `COc1ccc(-n2c(/C=C/c3ccc(O)cc3)nc3ccccc3c2=O)cc1`, the IC50 (H9c2) was > 79 µM (inactive).
In the case of `COc1ccccc1N1CCN(CCc2nnc(S)n2-c2ccccc2)CC1`, the AC50 [1] was 2.88 µM (active).
In the case of `O=C(CCc1nc(O)c2ccccc2n1)N1CCN(S(=O)(=O)c2cccc(F)c2)CC1`, the IC50 (H9c2) was > 79 µM (inactive).
In the case of `CCC(CC)C(=O)c1c[nH]c(C(=O)NCc2ccccn2)c1`, the AC50 (INS1) was > 260 µM (inactive).
For `O=C(Nc1nc2ccccc2n1Cc1ccccc1)c1ccc(COc2ccccc2[N+](=O)[O-])o1`, the EC50 [2] was > 60 µM (inconclusive), the AC50 (Cytochrome P450 1A2) was 1.78 µM (inconclusive) and the AC50 (Cytochrome P450 2D6) was 17.8 µM (inconclusive). The EC50 [3] was 1.25 µM (active).
For `CCn1c(=N)n(CC(=O)C23CC4CC(CC(C4)C2)C3)c2ccccc21`, the EC50 [2] was > 60 µM (not active) and the EC50 [3] was 0.223 µM (active).
With `CCOC(=O)c1c(NC(=O)C[n+]2ccc(N(C)C)cc2)sc(C)c1C` the EC50 [2] was > 60 µM (not active) and the EC50 [3] was 1.44 µM (active).
For `CC(c1nnc(S)n1-c1ccc(F)cc1)N1CCCCC1` (stereo not given), the AC50 [1] was 5.03 µM (active).
For `Nc1cc(O)nc(SCc2csc(-c3ccccc3)n2)n1`, the AC50 [1] was 5.71 µM (active).
For `Cc1sc2nc(SCC(=O)NCc3ccco3)nc(O)c2c1C`, the IC50 (H9c2) was > 79 µM (inactive).
For `Nc1n[nH]c(Nc2ccccc2)n1`, the AC50 [1] was 1.79 µM (active).
With `Cn1nnnc1SC1CC(=O)N(c2ccccc2)C1=O` (stereo not given) the EC50 [2] was 7.1 µM (active) and the EC50 [3] was 3.7 µM (active).
For `O=C(Nc1ccc(O)cc1)c1cc(S(=O)(=O)N2CCCC2)ccc1Cl`, the AC50 [1] was 2.49 µM (active).
For `COc1ccc2c(c1)NC(C)(C)C=C2C`, the EC50 [2] was > 60 µM (not active) and the EC50 [3] was 2.71 µM (active).
In the case of `CCN(CC)c1ccc(/C=N/NC(=O)CCC(=O)NCc2ccccc2)c(O)c1`, the EC50 (Streptococcus) was 4.53 µM (active), the AC50 [4] was 5.66 µM (active) and the AC50 (INS1) was 1.7 µM (active). For the same molecule, the EC50 [5] was 3.22 µM (active).
In the case of `CN1/C(=C\C(=O)c2ccco2)C(C)(C)c2ccccc21`, the AC50 (INS1) was 6.55 µM (active).
With `CN(Cc1nc(-c2ccccn2)no1)S(=O)(=O)c1ccc(Cl)cc1` the EC50 [6] was > 53 µM (inactive).
With `CCCc1cc(N2CCN(C(=O)c3ccco3)CC2)n2c(nc3ccccc32)c1C#N` the IC50 (H9c2) was > 79 µM (inactive).
In the case of `Cc1ccc(/C=C2\C(=O)NC(=O)N(Cc3ccccc3Cl)C2=O)o1`, the AC50 [1] was 0.494 µM (active).
With `Oc1ccccc1CNc1cnc2ccccc2c1` the AC50 [1] was 37.9 µM (active).
With `O=C(CCc1nc(O)c2ccccc2n1)NCCN1C(=O)S/C(=C\c2ccc(OC(F)F)cc2)C1=O` the IC50 (H9c2) was > 79 µM (inactive).
In the case of `Cc1cc(C)c(S(=O)(=O)Nc2ccc(O)cc2)c(C)c1`, the IC50 [7] was 69.7 µM (active) and the AC50 [1] was 0.694 µM (active).
With `CN1C(=O)C(=C/C=C/Nc2ccccc2)C(=O)N(C)C1=O` the EC50 [6] was > 53 µM (inactive).
For `COc1ccc(-c2cc(C#N)nc(N3CCN(C)CC3)n2)cc1`, the EC50 [2] was > 30 µM (not active) and the EC50 [3] was 1.95 µM (active).
For `Cc1ccccc1OCC(=O)NNC(=O)Cn1[nH]c(=O)c2ccccc2c1=O`, the IC50 (H9c2) was > 79 µM (inactive).
With `COc1cccc(-c2cc3nc(C)c(C)c(N4CCN(C(=O)c5ccoc5)CC4)n3n2)c1` the IC50 (H9c2) was > 79 µM (inactive).
In the case of `COc1ccc(C2CC(c3ccccc3)=NN2C(=O)COC(=O)c2nc3nc(C)cc(C)n3n2)cc1` (stereo not given), the EC50 [2] was > 60 µM (not active) and the EC50 [3] was 3.19 µM (active).
For `CC(=N\Nc1ccccc1)/C(=N/O)C(=O)Nc1ccccc1`, the AC50 [1] was 2.49 µM (active).
In the case of `CNC(=S)N/N=C/c1ccc(N2CCOCC2)s1`, the IC50 [7] was 28.3 µM (active), the EC50 [2] was > 60 µM (not active) and the EC50 [3] was > 60 µM (not active).
In the case of `Cc1ccc(Cl)cc1N1CCN(Cc2cc3c(cc2O)CCC3)CC1`, the EC50 [2] was > 60 µM (not active) and the EC50 [3] was 2.65 µM (active).
With `Nc1ccc(Cl)cc1/C(=N/O)c1ccccc1` the AC50 [1] was 22.8 µM (active).

Source: ChEMBL document CHEMBL1201862, “PubChem BioAssay data set” (2004)
